Reference: patent US8742082B2, “Compositions and methods for influencing satiety, lipid metabolism, and fat utilization” (Nestec S.A., priority 2008, dated 2014)

What was measured:
Format in all cases: in vivo
Cholescystokinin (CCK) = assay: Real-time PCR gene expression in peripheral tissues: CCK; settings: proximal intestine; C57bl6j mice, high fat diet, 100 mg/kg/body weight in diet, 5 weeks
Description: (§1) The expression of 45 genes was measured by real-time PCR in peripheral tissues to identify genes that were differentially expressed in response to oral administration of oleoylethanolamide (OEA) or a non-hydrolysable OEA analog (KDS 5104), which affect satiety, lipid metabolism, fat utilization, food intake, and body fat mass.
(§2) Animals, diet, and experimental design. Adult male C57bl6j mice purchased at 8 weeks of age were individually housed and maintained ad libitum on high fat diet and water for 2 weeks. Seven mice were randomly allocated in 3 groups and fed with a high fat diet (lipids represented 50% of daily energy) for 2 weeks. […]
(§3) RNA extraction and gene expression. […] The RNA concentration was determined on nanodrop from the absorbance at 260 nm. […] Real-time quantitative PCR (RT-qPCR) were performed on cDNA obtained as described above using a high through put system (Biomek 3000, Beckman & Coulter, Fullerton, USA) and a Lightcycler 480 (Roche/Hitachi, Basel, Switzerland) with SYBR Green Master mix+kit (Eurogentec, Philadelphia, USA). […] Values were expressed as ratio of RNA levels relative to control mice (diets with 0 mg of OEA/kg/body weight) using ΔΔ(Ct) (Livak K J & Schmittgen T D, 2001, Methods 25:402-8). Gene expression of the following genes was measured (abbreviation and GenBank Accession shown in parentheses). […]

[1] = tested on: overall gene expression pattern; assay: Multivariate statistical analysis of overall gene expression pattern; settings: C57bl6j mice, high fat diet, 100 mg/kg/body weight in diet, 5 weeks
Description: as §1, §2, §3

[2] = tested on: Cannabinoid receptor 1 (CB 1); assay: Real-time PCR gene expression in peripheral tissues: CB1; settings: C57bl6j mice, high fat diet, 100 mg/kg/body weight in diet, 5 weeks
Description: as §1
(§4) Animals, diet, and experimental design. Adult male C57bl6j mice purchased at 8 weeks of age were individually housed and maintained ad libitum on high fat diet and water for 2 weeks. Seven mice were randomly allocated in 3 groups and fed with a high fat diet (lipids represented 50% of daily energy) for 2 weeks. For one kilogram, the composition of the high fat diet was: 235 g casein, 201 g saccharose, 3.5 g L-cystine, 85 g starch, 116 g maltodextrin, 60 g cellulose, 12 g vitamins mix (AIN-93M, UPAE, Jouy-en-Josas, France), 51.5 g mineral mix (AIN-93Vx, UPAE, Jouy-en-Josas, France), and 236 g lard. Then, either OEA or KDS 5104 was added to the diet at a concentration of 100 mg/kg/body weight. The mice were kept under treatment for 5 weeks.
(§5) Sampling. At the end of the experimental period, mice were sacrificed by blood drawing (cardiac puncture) after anesthesia with isoflurane. Plasma was obtained by centrifugation (1,000 g for 10 min at 4° C.). Mesenteric, epididymal, inguinal and peritoneal adipose depots, as well as liver, stomach, small intestine mucosa, pancreas, and gastrocnemian muscle were removed and frozen into liquid nitrogen. Plasma, urine, feces, and organ samples were kept at −80° C. until analysis.
(§6) RNA extraction and gene expression. Total RNA from liver, intestine mucous membrane, adipose tissues, gastrocnemian muscle, pancreas and stomach were extracted with TRIzol reagent (Invitrogen, Carlsbad, USA) according to the manufacturer's instruction. The RNA concentration was determined on nanodrop from the absorbance at 260 nm. Retro-transcription PCRs to synthesize cDNA were performed using an Applied Biosystem Thermal Cycler 2720 and Superscript II (Invitrogen, Carlsbad, USA) according to manufacturer's protocol. Real-time quantitative PCR (RT-qPCR) were performed on cDNA obtained as described above using a high through put system (Biomek 3000, Beckman & Coulter, Fullerton, USA) and a Lightcycler 480 (Roche/Hitachi, Basel, Switzerland) with SYBR Green Master mix+kit (Eurogentec, Philadelphia, USA). Primers for the selected genes were generated using online informatics assistance from the Lightcycler manufacturer (Roche). Databases used to identify the genes were (1) the NCBI database (GenBank) and (2) the IHOP (Information Hyperlinked over Protein) database (www.ihop-net.org/UniPub/iHOP/bng/). Values were expressed as ratio of RNA levels relative to control mice (diets with 0 mg of OEA/kg/body weight) using ΔΔ(Ct) (Livak K J & Schmittgen T D, 2001, Methods 25:402-8). Gene expression of the following genes was measured (abbreviation and GenBank Accession shown in parentheses).
(§7) Statistical analysis. […] Statistical analysis of physiological parameters and gene expression data was performed by one-way ANOVA on Statview software (SAS Institute, Cary, USA). Daily food intake was analyzed using two-way ANOVA on Statview software. Statistical significance was set up at the P<0.05 level, the P<0.01 level and the P<0.001 level. For statistical analysis of the gene expression data, values were calculated relative to 18S expression for each mouse and gene.

[3] = Chronic oral OEA in high fat diet: liver, adipose fat pads and body weight; settings: C3H mice, 4 weeks
Excerpt: The physiological and biochemical effects of chronic oral OEA administration were investigated. Mice were chronically fed with OEA, provided as a supplement during 4 weeks, to study the effect on body weight gain and cumulative food intake, among other parameters.
Animals, diet and experimental design. Adult male C3H mice purchased at 8 weeks of age were individually housed and maintained ad libitum on different diets and water for 2 weeks. Seven mice were allocated in 3 groups by randomization by weight, and fed with a high fat diet (lipids represented 50% of daily energy) during 2 weeks. The composition of the high fat diet per kg was: 284.5 g of corn starch, 89.5 g of saccharose, 250 g of casein, 50 g of cellulose, 10 g of a mix of vitamins (V1001), 35 g of a mix of minerals (S10026) and 281 g of canola oil (UPAE, Jouy en Josas, France). Then, OEA was added to the diets at different levels to provide 0, 10, or 100 mg OEA/kg body weight. The mice were kept on each respective diet for 4 weeks. During the nutritional intervention, daily food intake was monitored and the mice were weighed 3 times a week.
Sampling. At the end of the experimental period, mice were sacrificed by blood drawing after anesthesia with isoflurane. Plasma was obtained by centrifugation (1,000 g for 10 min at 4° C.). Mesenteric, epididymal, inguinal and peritoneal adipose depots, as well as liver, stomach, small intestine mucosa and gastrocnemian muscle were excised and frozen into liquid nitrogen. Plasma and organ samples were kept at −80° C. until analysis. Triglycerides, glucose, total cholesterol and HDL cholesterol were directly measured on plasma samples collected during the sacrifice by enzymatic procedures, using a Beckman Coulter Systems SYNCHRON LX 20 (Beckman Coulter, Fullerton, USA) (oxidase method, Beckman Coulter for glucose, GPO method, Beckman Coulter for TG, oxidase and esterase method, Beckman Coulter for cholesterol). HDL were isolated by specific solubilization, using a precipitation isolation kit (Beckman Coulter, Fullerton, USA).
Statistical analysis. Results were determined as mean±standard error of the mean (SEM). Statistical analysis of physiological parameters was performed by one-way ANOVA on Statview software (SAS institute, Cary, USA). Statistical significance was set up at the P<0.05 level.

[4] = tested on: Fatty acid amide hydrolase (FAAH); assay: Real-time PCR gene expression in peripheral tissues: FAAH; settings: C57bl6j mice, high fat diet, 100 mg/kg/body weight in diet, 5 weeks
Description: as §1, §4, §5, §6, §7

[5] = tested on: Protein convertase subtilisin/kexin type 9 (PCSK 9); assay: Real-time PCR gene expression in peripheral tissues: PCSK9; settings: liver; C57bl6j mice, high fat diet, 100 mg/kg/body weight in diet, 5 weeks
Description: as §1, §2, §3

In the case of `CCCCCCCC/C=C\CCCCCCCC(=O)NCCO` [OEA, N-oleoyl-ethanolamide], the “CCK i, ratio of RNA levels relative to control mice” value (Cholescystokinin (CCK)) is reported as 1.57, the “overall gene expression pattern (multivariate statistical analysis)” value [1] is reported as “significant shift” and the “CB1 at ep, ratio of RNA levels relative to control mice” value ([2]; epidydimal adipose tissue) is reported as −1.94. For the same molecule, the “CB1 at per, ratio of RNA levels relative to control mice” value ([2]; peritoneal adipose tissue) was −5.27, the “CB1 i, ratio of RNA levels relative to control mice” value ([2]; proximal intestine) was −1.02 and the mesenteric fat pads ([3]; independently of the dose) was “remained unaffected”. For the same molecule, the Peritoneal adipose tissue ([3]; OEA 10 or 100 mg/kg body weight) was “mainly decreased”, the Hepatomegaly ([3]; OEA in diet) was “did not induce hepatomegaly” and the final body weight ([3]; OEA in diet) was “not affected”. The “inguinal fat pads (indicator of subcutaneous fat depot)” value ([3]; OEA in diet, P<0.05) was “decreased”, the “FAAH at ep, ratio of RNA levels relative to control mice” value ([4]; epidydimal adipose tissue) was 2.22 and the “FAAH at per, ratio of RNA levels relative to control mice” value ([4]; peritoneal adipose tissue) was 1.62. The “FAAH i, ratio of RNA levels relative to control mice” value ([4]; proximal intestine) was 1.68 and the “PCSK9 l, ratio of RNA levels relative to control mice” value [5] was 1.44.
